Common to all, as to type: in vivo
For series [1], the system named is Cabbage Looper (Trichoplusia ni, TRIPNI). The series is described as follows: Bioassays on Cabbage Looper (CL), 128-well diet tray assay. Particulars: Trichoplusia ni. Summed up:
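Each of eight wells receives artificial diet treated at 50 μg/cm^2 with the test molecule, then one to five second-instar larvae. Incubation runs five to seven days at 25° C with a 14:10 light-dark cycle under vented covers. Mortality is scored per well as a percentage and averaged.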

Series [2] relates to Beet Armyworm (Spodoptera exigua, LAPHEG). The series is described as follows: Bioassays on Beet Armyworm (BAW), 128-well diet tray assay. Conditions: Spodoptera exigua. The procedure, abridged: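 Percent larval mortality, averaged across eight wells, scored after five to seven days at 25° C. under 14:10 light-dark. Each well held one to five second instars feeding on diet dosed at 50 μg/cm^2 with compound from 90:10 acetone-water, solvent dried off.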

The test system of series [3] is Green Peach Aphid (Myzus persicae, MYZUPE). The series is described as follows: Bioassays on Green Peach Aphid (GPA), foliar spray on cabbage seedlings. Particulars: 72 h. As to the method:
Certain molecules disclosed in this document were tested against GPA using procedures described in the following example. In the reporting of the results, the “GPA & YFM Rating Table” was used (See Table Section).
Cabbage seedlings grown in 3-inch pots, with 2-3 small (3-5 cm) true leaves, were used as test substrate. The seedlings were infested with 20-50 GPA (wingless adult and nymph stages) one day prior to chemical application. Four pots with individual seedlings were used for each treatment. Test molecules (2 mg) were dissolved in 2 mL of acetone/methanol (1:1) solvent, forming stock solutions of 1000 ppm test molecule. The stock solutions were diluted 5× with 0.025% Tween 20 in water to obtain the solution at 200 ppm test molecule. A hand-held aspirator-type sprayer was used for spraying a solution to both sides of […] leaves until runoff. Reference plants (solvent check) were sprayed with the diluent only containing 20% by volume of acetone/methanol (1:1) solvent. Treated plants were held in a holding room for three days at approximately 25° C. and ambient relative humidity (RH) prior to grading. Evaluation was conducted by counting the number of live aphids per plant under a microscope. Percent control was measured using Abbott's correction formula (W. S. Abbott, “A Method of Computing the Effectiveness of an Insecticide” J. Econ. Entomol. 18 (1925), pp. 265-267) as follows. Corrected % Control=100*(X−Y)/X where X=No. of live aphids on solvent check plants and Y=No. of live aphids on treated plants. The results are indicated in the table entitled “Table ABC: Biological Results” (See Table Section).

In series [4] the test system is Yellow Fever Mosquito (Aedes aegypti, AEDSAE). The procedure, abridged: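 Larvae ~1 day old, in liver powder/water; compound from 4000 ppm DMSO stock diluted with water/acetone (90:10); 6 reps; lidded, RT, 3 d; mortality scored per well, rated.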
Setting [5] is: Cabbage Looper, rating class, read-out: CL.
[6] abbreviates: Beet Armyworm, rating class, read-out: BAW.
Where [7] appears, read: Green Peach Aphid, rating class, read-out: GPA.
Where [8] appears, read: Table ABC: Biological Results, species CL, read-out: CL.
Setting [9] is: Table ABC: Biological Results, species BAW, read-out: BAW.
[10] abbreviates: Table ABC: Biological Results, species GPA, read-out: GPA.
The mark [11] stands for this setting: Cabbage Looper, Table ABC / ABC-DP rating, read-out: CL rating.
Setting [12] is: Beet Armyworm, Table ABC / ABC-DP rating, read-out: BAW rating.

Like-named read-outs stand apart in the source and are kept apart here.

On to `N#CCC(=O)Nc1c(F)ccc(NC(=O)c2cc(NC(=O)[C@H]3[C@H](c4ccc(F)c(Cl)c4)C3(Cl)Cl)ccc2Cl)c1F` [F1700, 2-Chloro-N-(3-(2-cyanoacetamido)-2,4-difluorophenyl)-5-((1R,3R)-2,2-dichloro-3-(3-chloro-4-fluorophenyl)cyclopropane-1-carboxamido)benzamide], for which the pest or weed control at 50 µg/cm2 in series [1] (setting [5]) and in series [2] (setting [6]) was 50 to 100% in each case. For the same compound, the pest or weed control at 200 µg/mL in series [3] (setting [7]) was in the range of 0 to 80%.

For the compound `O=C(Nc1c(F)cc(NC(=O)C(F)(F)F)cc1F)c1cc(NC(=O)[C@H]2[C@H](c3ccc(Cl)c(Cl)c3)C2(Cl)Cl)ccc1Cl` [F1261, 2-Chloro-5-((1R,3R)-2,2-dichloro-3-(3,4-dichlorophenyl)cyclopropane-1-carboxamido)-N-(2,6-difluoro-4-(2,2,2-trifluoroacetamido)phenyl)benzamide], the pest or weed control at 50 µg/cm2 in series [1] (setting [8]) and in series [2] (setting [9]) was 50 to 100% each time. Also, in series [3] (setting [10]), the pest or weed control at 200 µg/mL fell in the range of 80 to 100%.

Regarding `CC(=O)Nc1c(F)ccc(NC(=O)c2cc(NC(=O)[C@H]3[C@H](c4ccc(F)c(C(F)(F)F)c4)C3(Cl)Cl)ccc2F)c1F` [F1531, N-(3-acetamido-2,4-difluorophenyl)-5-((1R,3R)-2,2-dichloro-3-(4-fluoro-3-(trifluoromethyl)phenyl)cyclopropane-1-carboxamido)-2-fluorobenzamide], the pest or weed control at 50 µg/cm2 in series [1] (setting [5]) and in series [2] (setting [6]) was 50 to 100% each time. Further, in series [3] (setting [7]), the pest or weed control at 200 µg/mL lay within 0 to 80%.

As for `CC(=O)Nc1c(F)ccc(NC(=O)c2cc(NC(=O)[C@H]3[C@H](c4ccc(Cl)c(C(F)(F)F)c4)C3(Cl)Cl)ccc2Cl)c1F` [F1658, N-(3-Acetamido-2,4-difluorophenyl)-2-chloro-5-((1R,3R)-2,2-dichloro-3-(4-chloro-3-(trifluoromethyl)phenyl)cyclopropane-1-carboxamido)benzamide], the pest or weed control at 50 µg/cm2 in series [1] (setting [5]) and in series [2] (setting [6]) was 50 to 100% each time. For the same compound, the pest or weed control at 200 µg/mL in series [3] (setting [7]) was 0 to 80%.

As for `CC(=O)Nc1cc(F)c(NC(=O)c2cc(NC(=O)[C@H]3[C@H](c4ccc(Cl)c(Cl)c4)C3(Cl)Cl)ccc2Cl)c(F)c1` [F1262, N-(4-Acetamido-2,6-difluorophenyl)-2-chloro-5-((1R,3R)-2,2-dichloro-3-(3,4-dichlorophenyl)cyclopropane-1-carboxamido)benzamide], the pest or weed control at 50 µg/cm2 in series [1] (setting [8]) and in series [2] (setting [9]) was 50 to 100% in each case. Moreover, the pest or weed control at 200 µg/mL in series [3] (setting [10]) was 80 to 100%.

With `Cc1c(Cl)cc(NC(=O)[C@H]2[C@H](c3ccc(F)c(Cl)c3)C2(Cl)Cl)cc1C(=O)Nc1ccc(F)cc1F` (relative stereo) [F1190, trans-3-Chloro-5-(2,2-dichloro-3-(3-chloro-4-fluorophenyl)cyclopropane-1-carboxamido)-N-(2,4-difluorophenyl)-2-methylbenzamide], the pest or weed control at 50 µg/cm2 in series [1] (setting [8]) and in series [2] (setting [9]) was 50 to 100% in each case. In series [3] (setting [10]), the pest or weed control at 200 µg/mL lay within 80 to 100%.

For the compound `O=C(Nc1ccc(F)c(NC(=O)C(F)F)c1F)c1cc(NC(=O)[C@H]2[C@H](c3ccc(F)c(C(F)(F)F)c3)C2(Cl)Cl)ccc1F` [F1530, 5-((1R,3R)-2,2-Dichloro-3-(4-fluoro-3-(trifluoromethyl)phenyl)cyclopropane-1-carboxamido)-N-(3-(2,2-difluoroacetamido)-2,4-difluorophenyl)-2-fluorobenzamide], the pest or weed control at 50 µg/cm2 in series [1] (setting [5]) and in series [2] (setting [6]) was 50 to 100% throughout. Further, in series [3] (setting [7]), the pest or weed control at 200 µg/mL lay within 0 to 80%.

For `O=C(Nc1cc(NC(=O)C(Cl)Cl)c(F)cc1F)c1cc(NC(=O)[C@H]2[C@H](c3ccc(Cl)c(Cl)c3)C2(Cl)Cl)ccc1Cl` [F1244, 2-Chloro-5-((1R,3R)-2,2-dichloro-3-(3,4-dichlorophenyl)cyclopropane-1-carboxamido)-N-(5-(2,2-dichloroacetamido)-2,4-difluorophenyl)benzamide], the pest or weed control at 50 µg/cm2 in series [1] (setting [8]) and in series [2] (setting [9]) was 50 to 100% in each case. In addition, the pest or weed control at 200 µg/mL in series [3] (setting [10]) lay within 0 to 80%.

On to `O=C(Nc1ccc(F)c(NC(=O)C(F)F)c1F)c1cc(NC(=O)[C@H]2[C@H](c3ccc(F)c(Cl)c3)C2(Cl)Cl)cc(F)c1Cl` [F1256, 2-Chloro-5-((1R,3R)-2,2-dichloro-3-(3-chloro-4-fluorophenyl)cyclopropane-1-carboxamido)-N-(3-(2,2-difluoroacetamido)-2,4-difluorophenyl)-3-fluorobenzamide], for which the pest or weed control at 50 µg/cm2 in series [1] (setting [8]) and in series [2] (setting [9]) was 50 to 100% throughout. Besides, the pest or weed control at 200 µg/mL in series [3] (setting [10]) lay within 80 to 100%.

Take `O=C(NNC(=O)c1cc(NC(=O)[C@H]2[C@H](c3cc(Cl)cc(Cl)c3)C2(Cl)Cl)ccc1Cl)Nc1ccccc1` (relative stereo) [F2537, trans-2-(2-Chloro-5-(2,2-dichloro-3-(3,5-dichlorophenyl)cyclopropane-1-carboxamido)benzoyl)-N-phenylhydrazine-1-carboxamide]: the pest or weed control at 50 µg/cm2 in series [1] (setting [11]) and in series [2] (setting [12]) was 50 to 100% each time. Also, in series [3] (Green Peach Aphid, Table ABC / ABC-DP rating, read-out: GPA rating), the pest or weed control at 200 µg/mL fell in the range of 80 to 100%.

As to `CCOC(C)C(=O)Nc1c(F)ccc(NC(=O)c2cc(NC(=O)[C@H]3[C@H](c4ccc(F)c(Cl)c4)C3(Cl)Cl)ccc2Cl)c1F` (stereo partly drawn) [F1698, 2-Chloro-5-((1R,3R)-2,2-dichloro-3-(3-chloro-4-fluorophenyl)cyclopropane-1-carboxamido)-N-(3-(2-ethoxypropanamido)-2,4-difluorophenyl)benzamide], the pest or weed control at 50 µg/cm2 in series [1] (setting [5]) and in series [2] (setting [6]) was 50 to 100% in each case. The pest or weed control at 200 µg/mL in series [3] (setting [7]) fell in the range of 0 to 80%.

For the compound `COCC(=O)Nc1c(F)ccc(NC(=O)c2cc(NC(=O)[C@H]3[C@H](c4ccc(F)c(C(F)(F)F)c4)C3(Cl)Cl)ccc2Cl)c1F` [F1724, 2-Chloro-5-((1R,3R)-2,2-dichloro-3-(4-fluoro-3-(trifluoromethyl)phenyl)cyclopropane-1-carboxamido)-N-(2,4-difluoro-3-(2-methoxyacetamido)phenyl)benzamide], the pest or weed control at 50 µg/cm2 in series [1] (setting [5]) and in series [2] (setting [6]) was 50 to 100% in each case. In series [3] (setting [7]), the pest or weed control at 200 µg/mL fell in the range of 80 to 100%.

For the compound `Cc1cc(N)ccc1NC(=O)c1cc(NC(=O)[C@H]2[C@H](c3cc(Cl)cc(Cl)c3)C2(Cl)Cl)ccc1Cl` (relative stereo) [DP4, trans-N-(4-Amino-2-methylphenyl)-2-chloro-5-(2,2-dichloro-3-(3,5-dichlorophenyl)cyclopropane-1-carboxamido)benzamide], the YFM rating entry in series [4] (Yellow Fever Mosquito, Table ABC / ABC-DP rating) is “A (80–100)”. In addition, the “YFM % Control (or Mortality) rating” value in series [4] (about 1 day-old larvae, 4000 ppm master solution diluted with 90:10 water/acetone, 15 μL per well plus 220 μL larval mixture, 3 days, mortality) was “A (80–100)”. In addition, the mortality at 50 µg/cm2 in series [1] (168 h, second instar larvae, 50 μg/cm^2 of test molecule on artificial diet, 25° C., five to seven days, average of eight wells, read-out: CL % Control (or Mortality) rating) was 50 to 100%; in series [2] (168 h, second instar larvae, 50 μg/cm^2 of test molecule on artificial diet, 25° C., five to seven days, average of eight wells, read-out: BAW % Control (or Mortality) rating), 50 to 100%. Further, the pest or weed control at 50 µg/cm2 in series [1] (setting [11]) and in series [2] (setting [12]) was 50 to 100% each time.

Turning to `CC(Cl)CC(=O)Nc1c(F)ccc(NC(=O)c2cc(NC(=O)[C@H]3[C@H](c4ccc(F)c(C(F)(F)F)c4)C3(Cl)Cl)ccc2Cl)c1F` (stereo partly drawn) [F1669, 2-Chloro-N-(3-(3-chlorobutanamido)-2,4-difluorophenyl)-5-((1R,3R)-2,2-dichloro-3-(4-fluoro-3-(trifluoromethyl)phenyl)cyclopropane-1-carboxamido)benzamide], the YFM entry in series [4] (Yellow Fever Mosquito, rating class) was “A (80–100)”. Also, the pest or weed control at 50 µg/cm2 in series [1] (setting [5]) and in series [2] (setting [6]) was 50 to 100% throughout.

A word on the mortality: it is the percentage killed.

The record behind these values is patent US20250228239A1, “MOLECULES HAVING PESTICIDAL UTILITY, AND INTERMEDIATES, COMPOSITIONS, AND PROCESSES, RELATED THERETO” (priority 2024, published 2025).
